In US20070299079A1, “4-AMINO-PYRIDO[3,2-e]PYRAZINES, THEIR USE AS INHIBITORS OF PHOSPHODIESTERASE 10, AND PROCESSES FOR PREPARING THEM” (priority 2006, published 2007):
pIC50: −log10 of the molar value. Read-outs that look alike come from different tables or passages of the source.

Experiments:
[1] = molecular target: T1, PDE10 from pig striatum (Sus scrofa, UniProt A0A287B941)
Protocol: (§1) For the enzymatic testing of PDE10 activity 0.5 g of the isolated and frozen striatum was homogenised in 10 ml 50 mM Tris/Mg-buffer at 4° C. and centrifuged for one hour at 100000 g. The supernatant is called the cytosolic fraction and was removed and stored on ice. The pellet was resuspended in the same buffer, but containing 1% Triton and incubated for 45 min at 4° C. Both fractions were independently applied onto a 5 ml Hi Trap™ QHP column at the Äkta-FPLC. After washing the columns the bound PDE protein was eluted with an increasing sodium chloride gradient (0 mM-500 mM sodium chloride) in 50 mM Tris/Mg-buffer at 4° C. for the cytosolic fraction and in the presence of 1% Triton for the membrane fraction. […] The fractions with PDE10-activity were pooled and frozen in aliquots until use at −20° C.
(§2) PDE10 activity was determined in a one step procedure in microtiterplates. […] Nonspecific activity was tested without the enzyme. The reaction was initiated by addition of the substrate solution and was carried out at 37° C. for 30 minutes. Enzymatic activity was stopped by addition of 25 μl YSi—SPA-beads (Amersham-Pharmacia). One hour later the mixture was measured in a liquid scintillation counter for microtiterplates (Microbeta Trilux). To pipette the incubation mixture a robot Biomek (Fa. Beckman) is used. […] For determination of IC50 values the Hill-plot, 2-parameter-model, was used.

[2] = test system: MK-801-induced hyperactivity and stereotyped sniffing; experiment: MK-801-induced hyperactivity and stereotyped sniffing, animal model of psychosis; assay type: in vivo, rat; settings: female Wistar rats, p.o. 30 min prior to test, MK-801 0.1 mg/kg i.p.; for Dose from which MK-801-induced hyperactivity is significantly reversed: activity recorded 1 h; for Dose from which MK-801-induced stereotyped sniffing is significantly reversed: sniffing scored 1 h
Protocol: Female Wistar rats (Crl: (WI) BR, Charles River, Sulzfeld, Germany) weighing 150 to 180 g were used for the MK-801-induced psychosis. Animals were housed under standard conditions in groups of five on a 12 h light/dark cycle (light on at 0600 h) with ad libitum access to food (Pellets, ssniff M/R 15, Spezialdiät GmbH, Soest/Westfalen) and water.
MK-801 (dizocilpine, MW 337.37) was obtained by Tocris, distributed by Biotrend Chemikalien GmbH, Köln, Germany.
Hydroxyethylcellulose was solved in distilled water.
MK-801 was dissolved in saline so that an administration volume of 0.5 ml/100 g was reached. The suspensions and solution were placed on a magnetic stirrer before and during dosing procedures.
The behaviour induced by the NMDA antagonist MK-801 is generally accepted as a rat model of psychosis. MK-801 induces stereotyped sniffing and hyperactivity in rats after intraperitoneal administration.
Locomotor activity of the rats was recorded by the MotiTest Apparatus (TSE, Bad Homburg, Germany). The test area consisted of a squared arena (45×45 cm) with protective plexiglass walls (20 cm of height) where rats could freely move. Horizontal movements were recorded by 32 infrared photocells arranged along the bottom of each wall of the arena. Activity [sec] was measured by the computer program “ActiMot” (TSE, Bad Homburg, Germany).
Stereotyped sniffing was scored by the experimenter every five minutes for one hour (12 intervals) according to the method described by Andiné et al. (1999). The scores of the 12 intervals were summed up at the end of the experiment.
The day of experiment the female rats were placed in the laboratory and received the test compound or vehicle at the appropriate time prior to test. MK-801 0.1 mg/kg was intraperitoneally administered 10 minutes prior to test.
At the beginning of the test the rats were placed in the centre of the squared arena of the MotiTest apparatus. Behaviour of the rats was recorded for one hour. After each run animals were removed and the boxes thoroughly cleaned and dried.
Results were analysed by one way analysis of variance (ANOVA). Tukey test was used for individual comparison. P<0.05 was regarded as significant.
MK-801 at 0.1 mg/kg i.p. was administered 10 min before testing. […] Activity and stereotyped sniffing was recorded for 1 h. Co=control without MK-801 stimulation, Cs=control with MK-801 stimulation. Significant to MK-801 stimulated control (=Cs): * p<0.05, *** p<0.001.

[3] = molecular target: T2, PDE10 from rat striatum (Rattus norvegicus, UniProt Q9QYJ6); experiment: Inhibition of PDE10 from rat striatum; assay type: biochemical
T2 construct: 0.5 g of the isolated and frozen striatum was homogenised; from tissue; host or cells: striatum of male Wistar rats, anion-exchange FPLC fractions
T2 sequence (Q9QYJ6 1-794): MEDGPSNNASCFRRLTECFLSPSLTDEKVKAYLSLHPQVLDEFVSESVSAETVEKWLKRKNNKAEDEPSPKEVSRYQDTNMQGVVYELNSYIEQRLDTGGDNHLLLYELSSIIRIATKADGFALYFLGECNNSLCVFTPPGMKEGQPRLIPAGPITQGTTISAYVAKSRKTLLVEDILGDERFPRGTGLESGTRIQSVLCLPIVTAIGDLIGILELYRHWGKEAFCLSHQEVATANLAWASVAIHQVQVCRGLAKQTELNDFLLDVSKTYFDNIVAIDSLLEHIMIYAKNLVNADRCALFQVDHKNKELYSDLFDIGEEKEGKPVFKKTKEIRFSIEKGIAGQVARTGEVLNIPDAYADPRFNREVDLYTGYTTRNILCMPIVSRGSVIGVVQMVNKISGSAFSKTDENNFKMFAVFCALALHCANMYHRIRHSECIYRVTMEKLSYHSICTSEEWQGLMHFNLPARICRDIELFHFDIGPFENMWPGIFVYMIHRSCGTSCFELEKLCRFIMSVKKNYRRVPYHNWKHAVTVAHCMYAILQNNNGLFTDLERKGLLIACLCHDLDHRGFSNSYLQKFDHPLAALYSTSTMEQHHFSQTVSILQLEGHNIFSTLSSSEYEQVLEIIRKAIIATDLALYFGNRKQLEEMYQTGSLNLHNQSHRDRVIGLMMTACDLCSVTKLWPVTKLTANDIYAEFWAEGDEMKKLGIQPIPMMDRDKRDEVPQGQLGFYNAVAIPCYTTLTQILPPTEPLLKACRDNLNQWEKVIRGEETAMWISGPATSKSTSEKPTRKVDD
Protocol: Phosphodiesterase isoenzyme 10 (PDE10) activity was determined in preparations of rat, pig and guinea pig striatum respectively. Striatum from male Wistar rats (180-200 g), male hybrid pigs (150 kg) and male guinea pigs (CRL (HA), 500 g) respectively were collected and frozen at −70° C.
For the enzymatic testing of PDE10 activity 0.5 g of the isolated and frozen striatum was homogenised in 10 ml 50 mM Tris/Mg-buffer at 4° C. and centrifuged for one hour at 100000 g.
Nonspecific activity was tested without the enzyme. […] For determination of IC50 values the Hill-plot, 2-parameter-model, was used.

[4] = molecular target: T1, PDE10 from pig striatum; experiment: Inhibition of PDE10 from pig striatum; settings: read-out: Km value of the substrate for PDE10 from pig striatum
Protocol: as §1, §2

| Compound | melting point | further results |
| --- | --- | --- |
| 8-methoxy-3-methyl-1-propyl-4-(pyrazol-1-yl)-imidazo[1,5-a]pyrido[3,2-e]pyrazine hydro chloride [Example 30] |  | pIC50 [1]: 6.81 |
| 8-methoxy-3-methyl-1-propyl-4-pyrrolidino-imidazo[1,5-a]pyrido[3,2-e]pyrazine [Example 26] |  | pIC50 [1]: 6.86 |
| CON1C=C2C=Nc3c(ncc(-c4ccccc4)c3N)N2C1 [Example 15, 4-amino-8-methoxy-3-phenyl-imidazo[1,5-a]pyrido[3,2-e]pyrazine] | 252 to 253 °C |  |
| CCCN1CC(C)=C(NC)C2=C1N1CN(OC)C=C1C=N2 [Example 16, 4-(N-methyl-amino)-8-methoxy-3-methyl-1-propyl-imidazo[1,5-a]pyrido[3,2-e]pyrazine] | 111 to 113 °C |  |
| CCCN1CC(C)=C(NC2CCCC2)C2=C1N1CN(OC)C=C1C=N2 [Example 23, 4-(N-cyclopentyl-amino)-8-methoxy-3-methyl-1-propyl-imidazo[1,5-a]pyrido[3,2-e]pyrazine] | 77 to 80 °C |  |
| CCN1CC(C)=C(N(C(C)=O)C(C)=O)C2=C1N1CN(OC)C=C1C=N2 [Example 41, 4-(N,N-diacetyl-amino)-1-ethyl-8-methoxy-3-methyl-imidazo[1,5-a]pyrido[3,2-e]pyrazine] | 135 to 136 °C |  |
| 8-methoxy-3-methyl-4-(2-methyl-imidazol-1-yl)-1-propyl-imidazo[1,5-a]pyrido[3,2-e]pyrazine [Example 34] |  | pIC50 [1]: 6.40 |
| 8-methoxy-3-methyl-1-propyl-4-(1,2,4-triazol-1-yl)-imidazo[1,5-a]pyrido[3,2-e]pyrazine [Example 33] |  | pIC50 [1]: 7.60 |
| 4-amino-8-methoxy-3-methyl-1-propyl-imidazo[1,5-a]pyrido[3,2-e]pyrazine [Example 1] |  | Dose from which MK-801-induced hyperactivity is significantly reversed [2]: ≥ 10 mg/kg; Dose from which MK-801-induced stereotyped sniffing is significantly reversed [2]: ≥ 10 mg/kg |
| CCN1CC(C)=C(NC2CCCC2)C2=C1N1CN(OC)C=C1C=N2 [Example 22, 4-(N-cyclopentyl-amino)-1-ethyl-8-methoxy-3-methyl-imidazo[1,5-a]pyrido[3,2-e]pyrazine] | 93 to 95 °C |  |
| CCN1CC(C)=C(N2CCOCC2)C2=C1N1CN(OC)C=C1C=N2 [Example 24, 1-ethyl-8-methoxy-3-methyl-4-morpholino-imidazo[1,5-a]pyrido[3,2-e]pyrazine] | 132 to 133 °C |  |
| COc1ccc2nc(Cl)c3cnc(C(C)C)n3c2n1 [Intermediate A14] |  | pIC50 ([3]; rat striatum preparation, 0.1 μM [3H]-cAMP, 37° C., 30 minutes, read-out: Inhibition of PDE10 from rat IC50): 6.63 |
| CCCN1CC(C)=C(NC(C)=O)C2=C1N1CN(OC)C=C1C=N2 [Example 38, 4-(N-acetyl-amino)-8-methoxy-3-methyl-1-propyl-imidazo[1,5-a]pyrido[3,2-e]pyrazine] | 210 to 213 °C |  |
| CCCN1CC(C)=C(NCC)C2=C1N1CN(OC)C=C1C=N2 [Example 17, 4-(N-ethyl-amino)-8-methoxy-3-methyl-1-propyl-imidazo[1,5-a]pyrido[3,2-e]pyrazine] | 140 to 142 °C |  |
| CCCN1CC(C)=C(N(C)C)C2=C1N1CN(OC)C=C1C=N2 [Example 19, 4-(N,N-dimethyl-amino)-8-methoxy-3-methyl-1-propyl-imidazo[1,5-a]pyrido[3,2-e]pyrazine] | 93 to 95 °C |  |
| COc1ccc(Cc2nccc3cc(OC)c(OC)cc23)cc1OC [Papaverine, reference compound] |  | pIC50 [3]: 6.85 |
| 8-methoxy-3-methyl-4-piperidino-1-propyl-imidazo[1,5-a]pyrido[3,2-e]pyrazine [Example 27] |  | pIC50 [1]: 6.52 |
| CCN1CC(C)=C(NCc2ccccc2)C2=C1N1CN(OC)C=C1C=N2 [Example 21, 4-(N-benzyl-amino)-1-ethyl-8-methoxy-3-methyl-imidazo[1,5-a]pyrido[3,2-e]pyrazine] | 127 to 128 °C |  |
| Nc1nc2c(ncn2[C@@H]2O[C@@H]3COP(=O)(O)O[C@H]3[C@H]2O)c(=O)[nH]1 [cGMP] |  | Km [4]: 2.2 µM; Km ([3]; substrate Km, rat striatum): 1.8 µM |
| CCN1CC(C)=C(N2CCN(c3ccccc3)CC2)C2=C1N1CN(OC)C=C1C=N2 | 224 to 227 °C |  |
| CCCN1CC(C)=C(N(C(C)=O)C(C)=O)C2=C1N1CN(OC)C=C1C=N2 [Example 39, 4-(N,N-diacetyl-amino)-8-methoxy-3-methyl-1-propyl-imidazo[1,5-a]pyrido[3,2-e]pyrazine] | 135 to 138 °C |  |
| CCCN1CC(C)=C(n2ccnn2)C2=C1N1CN(OC)C=C1C=N2 [Example 32, 8-methoxy-3-methyl-1-propyl-4-(1,2,3-triazol-1-yl)-imidazo[1,5-a]pyrido[3,2-e]pyrazine] | 218 to 220 °C |  |
| 4-amino-1-(2-chloro-phenyl)-8-methoxy-3-methyl-imidazo[1,5-a]pyrido[3,2-e]pyrazine [Example 11] |  | Dose from which MK-801-induced hyperactivity is significantly reversed [2]: ≥ 0.5 mg/kg; Dose from which MK-801-induced stereotyped sniffing is significantly reversed [2]: ≥ 0.5 mg/kg |
| CON1C=C2C=NC3=C(N(CCC(F)(F)F)CC(C)=C3N)N2C1 [Example 8, 4-amino-8-methoxy-3-methyl-1-(3,3,3-trifluoropropyl)-imidazo[1,5-a]pyrido[3,2-e]pyrazine] | 273 to 276 °C |  |
| CCCCNC1=C(C)CN(CC)C2=C1N=CC1=CN(OC)CN12 [Example 20, 4-(N-butyl-amino)-1-ethyl-8-methoxy-3-methyl-imidazo[1,5-a]pyrido[3,2-e]pyrazine] | 62 to 65 °C |  |
